# According to patent US20180263979A1, “COMBINATION OF RAF INHIBITORS AND AURORA KINASE INHIBITORS” (MILLENNIUM PHARMACEUTICALS, INC., priority 2014, published 2018):
# Like-named read-outs stand apart in the source and are kept apart here.
# Tests used:
# [1] = tested on: SK-MEL-2 human melanoma xenograft (NRAS mutant); assay type: in vivo; settings: for Non-Specific Deaths / Regression (100%) / Tumor Free on Day 74: n=8; for Delta AUC: vs vehicle
# Experimental: Eight week old female athymic NCr-nu/nu mice were inoculated SC with 30-40 mg tumor fragments, propagated in an in vivo passage, in the area of the right flank. Tumor growth was monitored with vernier calipers and the tumor volume was calculated using the formula (0.5×[length×width^2]). When the mean tumor volume (MTV) reached approximately 167 mm^3 (range of 100-245 mm^3) animals were randomized into 12 treatment groups (n=8/group). The animals were dosed beginning 12 days after tumor inoculation with either vehicles or test compounds. The first day of treatment was designated as Day 0.
# The 10 mg/mL solution was diluted with 100% PEG 400 for the lower dose.
# Sodium alisertib was formulated in a half volume of 20% HPBCD in WFI and then diluted to a final volume (10% HPBCD/1% NaHCO3 in WFI) with 2% sodium bicarbonate in WFI.
# The 2 vehicles, 100% PEG 400 (Vehicle 1) and 10% HPBCD/1% NaHCO3 in WFI (Vehicle 2) were administered (0.05 mL/10 g BW) concomitantly to mice in the vehicle group.
# Tumor size and body weight were measured BIW beginning on the first day of treatment. Animals were terminated when their tumor reached approximately 2000 mm3, and the study was terminated on Day 62 post treatment initiation.
# Inhibition of tumor growth was determined by calculating the percent TGI (MTV of the vehicle group−MTV of a treated group)/MTV of the vehicle group on Day 20 post treatment initiation. Statistical comparisons of tumor growth between treatment groups and vehicle were conducted using a linear mixed effects regression analysis on the ΔAUC.
# Additional endpoints used to evaluate efficacy were: nonspecific deaths, complete tumor response, and the number of tumor-free survivors (TFS), defined as no measurable tumor observed on the last day of data collection prior to study termination (Day 62 post treatment initiation). A complete response (CR) was defined as a decrease in tumor mass to an undetectable size (<32 mm3).
# The differences in the tumor growth trends over time between the vehicle control and treatment groups were assessed using linear mixed effects regression models. These models take into account that each animal was measured at multiple time points. A model was fit for the comparison, and the areas under the tumor volume-versus-time curve (AUCs) for control and treatment groups were calculated using the values predicted from the model.
# These values were compared across treatment groups to assess whether the differences in trends over time were statistically significant. To compare pairs of treatment groups, the following mixed-effects linear regression model was fit to the data using the maximum likelihood method:
# Where Yijk is the log 10 tumor value at the jth time point of the kth animal in the ith treatment, Yi0k is the day 0 (baseline) log 10 tumor value in the kth animal in the ith treatment, dayj was the median-centered time point and (along with day2j) was treated as a continuous variable, and eijk is the residual error. A spatial power law covariance matrix was used to account for the repeated measurements on the same animal over time. Interaction terms as well as day2j terms were removed if there were not statistically significant.
# The −2 log likelihood of the full model was compared to one without any treatment terms (reduced model) and the difference in the values was tested using a Chi-squared test. The degrees of freedom of the test were calculated as the difference between the degrees of freedom of the full model and that of the reduced model.
# The predicted differences in the log tumor values (Yijk-Yi0k, which can be interpreted as log 10 (fold change from day 0)) were taken from the above models to calculate mean AUC values for each treatment group. A dAUC value was then calculated as: […]
# For synergy analysis, the observed differences in the log tumor values were used to calculate AUC values for each animal. […]
# [2] = tested on: A375 melanoma xenograft (B-Raf mutant); assay: In vivo tumor efficacy, B-Raf mutated A375 human melanoma xenograft model; design: species or system Mouse (Mus musculus) Athymic Balb/c Nude; settings: for Mean Maximum % BWL: Day 0 to Day 21; for TGI: Day 21 post treatment initiation
# Experimental: Each animal was inoculated with 3×10^6 A375 tumor cells (in 0.1 mL, 1:1 with Matrigel) into the right flank for tumor model development. Body weight and the tumor growth were monitored twice weekly. Tumor size was measured to the nearest 0.1 mm using vernier calipers and applying the formula V=W2×L/2, where V=volume, W=width, and L=length for the tumor xenograft. Xenografts were allowed to grow until they reached an average size of approximately 195 min3, 11 days after inoculation.
# Sodium alisertib was formulated in 10% HPβCD plus 1% NaHCO3 in water for injection (WFI) (Vehicle 2). Alisertib was prepared and stored at room temperature (18 to 25° C.).
# Animals in the vehicle treatment group were given both Vehicle 1 and Vehicle 2.
# The dose volume for vehicle or compound was 5 mL/kg body weight.
# Tumor size and body weight were measured twice weekly beginning on the day of animal grouping (e.g., Day 0). Animals were terminated when their tumor reached approximately 2000 mm3 and the study was terminated on Day 38 post treatment initiation.
# Inhibition of tumor growth was determined by calculating the percent TGI (MTV of the vehicle group−MTV of a treated group)/MTV of the vehicle group] on Day 21 post treatment initiation. Statistical comparisons of tumor growth between treatment groups and vehicle were conducted using a linear mixed effects regression analysis on the ΔAUC.
# Statistical analysis was carried out as described in Example 2.
# [3] = alisertib 20 mg/kg/inj PO Q1D x 21 from Day 12 (+Vehicle 1)
# [4] = alisertib 10 mg/kg PO QD Days 1-21 (+Vehicle 1)
# [5] = alisertib 20 mg/kg PO QD Days 1-21 (+Vehicle 1)
# [6] = Compound A 12.5 mg/kg/inj PO Q1D x 21 from Day 12 (+Vehicle 2)
# [7] = Compound A 50 mg/kg/inj PO Q3D x 2/3 wks (BIW) from Day 12 (+Vehicle 2)
# [8] = Compound A 12.5 mg/kg PO QD Days 1-21 (+Vehicle 2)
# [9] = Compound A 50 mg/kg PO BIW Days 1, 4, 8, 11, 15, 18 (+Vehicle 2)
compound,measurement,setting,value
"COc1cc(Nc2ncc3c(n2)-c2ccc(Cl)cc2C(c2c(F)cccc2OC)=NC3)ccc1C(=O)O [alisertib, 4-{[9-chloro-7-(2-fluoro-6-methoxyphenyl)-5H-pyrimido[5,4-d][2]benzazepin-2-yl]amino}-2-methoxybenzoic acid, reference compound]",Mean Tumor Volume on Day 32,[1]; [3],872 mm^3
same,TGI on Day 32,[1]; [3],60.3%
same,Non-Specific Deaths,[1]; [3],0
same,Regression (100%),[1]; [3],0
same,Tumor Free on Day 74,[1]; [3],0
same,Delta AUC,[1]; [3],30.9
same,Mean Maximum % BWL,[2]; [4],0%
same,TGI,[2]; [4],21.7%
same,Mean Maximum % BWL,[2]; [5],0%
same,TGI,[2]; [5],40.7%
"C[C@@H](NC(=O)c1ncnc(N)c1Cl)c1ncc(C(=O)Nc2cc(C(F)(F)F)c(Cl)cn2)s1 [Compound A, (R)-2-(1-(6-amino-5-chloropyrimidine-4-carboxamide)ethyl)-N-(5-chloro-4-(trifluoromethyl)pyridin-2-yl)thiazole-5-carboxamide]",Mean Tumor Volume on Day 32,[1]; [6],645 mm^3
same,TGI on Day 32,[1]; [6],70.7%
same,Non-Specific Deaths,[1]; [6],0
same,Regression (100%),[1]; [6],0
same,Tumor Free on Day 74,[1]; [6],0
same,Delta AUC,[1]; [6],37.3
same,Mean Tumor Volume on Day 32,[1]; [7],816 mm^3
same,TGI on Day 32,[1]; [7],62.9%
same,Non-Specific Deaths,[1]; [7],0
same,Regression (100%),[1]; [7],0
same,Tumor Free on Day 74,[1]; [7],0
same,Delta AUC,[1]; [7],35.6
same,Mean Maximum % BWL,[2]; [8],0%
same,TGI,[2]; [8],76.4%
same,Mean Maximum % BWL,[2]; [9],0%
same,TGI,[2]; [9],45.3%
